These results are taken from patent US20030157715A1, “Modulation of chromosome function by chromatin remodeling agents” (priority 2000, published 2003).

The target of experiment [1] is W9 probe (tandem repeats of an oligonucleotide with a 9 bp AT-tract). The experiment in a line: DNase I footprinting on probe W9. Format: binding. As to conditions: apparent binding affinity, DNase I footprinting, probe W9; read-out: Kdapp W9. An excerpt:
DNase I cleavage pattern in the presence of P9 and P7. Ligand concentrations are indicated at the top of each lane. The position of each of the AT-tracts is indicated by square brackets. […] This probe is composed of head-to-tail tandem repeats of an oligonucleotide with a 9 bp AT-tract.
(§1) Synthetic oligonucleotides […] and […] were hybridized to obtain the W9 probe, oligomerized by ligation and digested with BamHI and BglII to obtain different tandem repeats. The following oligonucleotides were prepared identically: GAF31 is composed of the oligonucleotides […] and […] and, BrownI of oligonucleotides […] and […]. Fragments were purified on low-melt agarose gels and then cloned into a modified pSP64 vector, cut by BamHI and BglII. End-labeling was carried out following digestion with HindIII and a fill-in reaction with Klenow DNA polymerase. The labeled plasmid was cut with PvuII and the target fragments purified from low-melting agarose gels. The 657 bp EcoR1/Hinf1 fragment of the Drosophila histone SAR was cloned into the SmaI site of the modified pSP64 plasmid. This SAR probe was end-labeled following-digestion with EcoR1, then cut with ClaI and the resulting 347 bp fragment purified from low-melting agarose gels.
(§2) All reactions were performed in a total volume of 40 μl. A polyamide stock solution or buffer (for reference lanes) was added to an assay buffer containing 20 kcpm radiolabeled DNA, affording final concentrations of 10 mM Tris-HCl (pH 7.4), 10 mM KCl, 10 MM MgCl, 5 mM CaCl2, 0.5 mM EDTA, 0.5 mM EGTA, 1 mM DTT and 0.1% digitonine. The solutions were allowed to equilibrate for at least 2 h at room temperature. Footprinting reactions were initiated by the addition of 2 μl of a DNase stock solution (containing −100 μg DNase I in buffer) and allowed to proceed for 2 min at room temperature. The reactions were stopped by addition of 10 μl of a solution containing 1.25 M NaCl, 100 mM EDTA. Next, 5 μl of a 1% SDS solution was added, followed by 2 μl of a solution containing 1 μg poly(dA-dT), 1 μg salmon sperm DNA and 10 μg glycogen and the DNA was ethanol precipitated (20 min at −20 C.). The reactions were resuspended in 4 μl of 80% formamide loading buffer, denatured 10 min at 85 C., cooled on ice and electrophoresed on 8% polyacrylamide denaturing gels (5% cross-link, 8 M urea) at 30 W for 1 h. The gels were dried and exposed o/n at −70 C.

The next experiment deals with Drosophila histone SAR. The experiment in a line: DNase I footprinting on SAR probe. It counts as binding. As to conditions: for Ratio: Kdapp W9 / Kdapp SAR (SAR specificity factor); for Kd: apparent binding affinity, DNase I footprinting, SAR probe, read-out: Kdapp SAR. The procedure:
as §1, §2

The test system of experiment [2] is satellite III chromatin in Kc nuclei. As to conditions: previously reported (Kas and Laemmli, 1992); cited from earlier work.
The subject of experiment [3] is DNA satellites in Kc nuclei and polytene chromosomes. As to the kind of experiment: Staining of Kc nuclei and polytene chromosomes with fluorescent polyamides. Set-up: species or system Drosophila. The conditions noted are these: isolated Kc nuclei and polytene chromosomes. The procedure: Kc Drosophila nuclei were isolated (Mirkovitch et al., 1984), diluted into XBE (10 mM Hepes, pH 7.7, 2 mM MgCl2, 0.1 mM CaCl2, 100 mM KCl, 5 mM EGTA and 50 mM sucrose), fixed with 0.8% fresh paraformaldehyde for 15 minutes and spun onto a round coverslip (10 mm) as described previously (Boy de la Tour and Laemmli, 1988). For washing and staining, coverslips were floated on 60 μl drops of XBE deposited on […]. After centrifugation coverslips were washed twice (1 minute), stained for 60 minutes, washed four times (1 minute) and then mounted in PPDI (5 mM Hepes pH 7.8, 100 mM NaCl, 20 mM KCl, 1 mM EGTA, 10 mM Mg SO4, 2 mM CaCl2, 78% glycerol, 1 mgr/ml paraphenylene diamine). FIG. (4) panel A was stained with 0.5 μM […] and 15 μM ethidium bromide (EB). Kc nuclei and polytene chromosomes were stained with fluorescent polyamides as described elsewhere (Janssen et al., 2000). For immunofluorescence, polytene glands were carefully dissected from bw^D or Canton S. flies in 1× PBS as described (Ashburner, 1989) Whole glands in sol P (1×PBS supplemented with 1 mM MgCl2 and 0.1% digitonin) were then incubated for 60 minutes with various concentrations of either P31, P9 or no compound at room temperature. P31 (not P9) induced redistribution of GAF during this incubation step. […] Images were recorded with a wide field, deconvolution-type imaging system from DeltaVision.

Turning to `CN(C)CCCNC(=O)CCNC(=O)c1cc(NC(=O)c2cc(NC(=O)c3cc(NC(=O)c4cc(NC(=O)c5cccn5C)cn4C)cn3C)cn2C)cn1C` [Compound P10, (Py)5βDp], the Kd in experiment [1] stood at 80 nM; on Drosophila histone SAR it was 35 nM. In addition, the Ratio with Drosophila histone SAR was determined as 2.3.
With `CN(C)CCCNC(=O)CCNC(=O)c1cc(NC(=O)c2cc(NC(=O)c3cc(NC(=O)CCNC(=O)c4cc(NC(=O)c5cc(NC(=O)c6cc(NC(=O)CCNC(=O)c7cc(NC(=O)c8cc(NC(=O)c9cccn9C)cn8C)cn7C)cn6C)cn5C)cn4C)cn3C)cn2C)cn1C` [Compound P13, ((Py)3β)3Dp], the Kd in experiment [1] came out at 1 nM. In addition, in the experiment with Drosophila histone SAR, the Ratio worked out at 0.8 and the Kd is 1.25 nM.
Take `Cn1cc(NC(=O)c2cc(NC(=O)c3cc(NC=O)cn3C)cn2C)cc1C(=O)NCCC(=N)N` [distamycin]: the “chromatin opening at satellite III by distamycin” value in experiment [2] is “causes opening of the chromatin fiber”.
On to (Py)3β(Py)3βD* [Compound P9F], for which the Kd in experiment [1] was found to be 4 nM; on Drosophila histone SAR, 1 nM. The Ratio in the experiment on Drosophila histone SAR was 4. Further, the “increase of SAR specificity upon fluorescein tagging” value with Drosophila histone SAR (tagged versus untagged compound) is “about 4 fold”. Besides, in experiment [3], the “main nuclear targets by epifluorescence staining” value was “targets primarily satellite I and III”.
Take F*γ(Py)5βDp [Compound P10F]: the Kd in experiment [1] came out at 3000 nM. In the experiment on Drosophila histone SAR, the Ratio turned out to be 2.5 and the Kd was determined as 1200 nM.
